Measurements as given in the supplement of paper PMC10307832.

Columns and labels:
Test in all cases: relative viability (nuclei count vs DMSO), 5 days (fraction); higher = more cells survive
Dabrafenib + Vorinostat = compound: CC(C)(C)c1nc(-c2cccc(NS(=O)(=O)c3c(F)cccc3F)c2F)c(-c2ccnc(N)n2)s1 [Dabrafenib] + O=C(CCCCCCC(=O)Nc1ccccc1)NO [Vorinostat] (partner 1 µM)
How it was run: (§1)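 Lung cancer cell lines in 1536-well plates got either a single drug or a fixed anchor-drug dose together with five library-drug doses (not always all listed) in √10 steps, by pin tool, on the day after seeding. Nuclei were counted after 5 days, and relative viability is the treated-to-vehicle ratio of nuclei counts. Values are medians of duplicate plates.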

VX-702 + Navitoclax = compound: NC(=O)c1ccc(N(C(N)=O)c2c(F)cccc2F)nc1-c1ccc(F)cc1F [VX-702] + CC1(C)CCC(c2ccc(Cl)cc2)=C(CN2CCN(c3ccc(C(=O)NS(=O)(=O)c4ccc(N[C@H](CCN5CCOCC5)CSc5ccccc5)c(S(=O)(=O)C(F)(F)F)c4)cc3)CC2)C1 [Navitoclax] (partner 0.5 µM)
How it was run: as §1

Dabrafenib + OSI-027 = compound: CC(C)(C)c1nc(-c2cccc(NS(=O)(=O)c3c(F)cccc3F)c2F)c(-c2ccnc(N)n2)s1 [Dabrafenib] + COc1cccc2cc(-c3nc([C@H]4CC[C@H](C(=O)O)CC4)n4ncnc(N)c34)[nH]c12 [OSI-027] (partner 0.5 µM)
How it was run: as §1

VX-702 + Linsitinib = compound: NC(=O)c1ccc(N(C(N)=O)c2c(F)cccc2F)nc1-c1ccc(F)cc1F [VX-702] + C[C@]1(O)C[C@@H](c2nc(-c3ccc4ccc(-c5ccccc5)nc4c3)c3c(N)nccn32)C1 [Linsitinib] (partner 1 µM)
How it was run: as §1

Row | Cell Line | relative viability (Dabrafenib + Vorinostat; first compound 0.009487 µM) | relative viability (Dabrafenib + Vorinostat; first compound 0.09487 µM) | relative viability (Dabrafenib + Vorinostat; first compound 0.3 µM) | relative viability (VX-702 + Navitoclax; first compound 0.02 µM) | relative viability (VX-702 + Navitoclax; first compound 0.2 µM) | relative viability (VX-702 + Navitoclax; first compound 0.6325 µM) | relative viability (VX-702 + Navitoclax; first compound 2 µM) | relative viability (Dabrafenib + OSI-027; first compound 0.009487 µM) | relative viability (Dabrafenib + OSI-027; first compound 0.03 µM) | relative viability (Dabrafenib + OSI-027; first compound 0.09487 µM) | relative viability (Dabrafenib + OSI-027; first compound 0.3 µM) | relative viability (VX-702 + Linsitinib; first compound 0.02 µM) | relative viability (VX-702 + Linsitinib; first compound 0.2 µM) | relative viability (VX-702 + Linsitinib; first compound 0.6325 µM) | relative viability (VX-702 + Linsitinib; first compound 2 µM) | relative viability (Dabrafenib + Vorinostat; first compound 0.03 µM) | relative viability (Dabrafenib + Vorinostat; first compound 0.003 µM) | relative viability (Dabrafenib + OSI-027; first compound 0.003 µM)
1 | NCI-H322M | 0.962 | 0.822 | 0.74 | 1.2 | 1.02 | 1.19 | 1.28 | 0.545 | 0.503 | 0.515 | 0.448 | 0.999 | 0.905 | 0.918 | 0.883 |  |  | 
2 | NCI-H441 | 0.725 | 0.804 | 0.839 | 0.705 | 0.632 | 0.511 | 0.871 | 0.465 | 0.565 | 0.438 | 0.352 | 0.699 | 0.429 | 0.369 | 0.747 | 0.994 |  | 
3 | NCI-H460 | 0.712 | 0.641 | 0.639 | 1.15 | 1.03 | 1.08 | 1.37 | 0.651 | 0.629 | 0.591 | 0.534 | 0.879 | 0.837 | 0.825 | 0.814 | 0.662 | 0.744 | 0.641
4 | NCI-H520 | 0.753 | 0.823 | 0.74 | 1 | 0.985 | 0.953 | 1.1 | 0.348 | 0.188 | 0.324 | 0.278 | 0.962 | 0.936 | 0.915 | 0.925 | 0.63 | 0.82 | 0.272
5 | NCI-H596 | 0.723 | 0.725 | 0.515 | 0.959 | 0.946 | 0.881 | 0.994 | 0.976 | 0.63 | 0.658 | 0.886 | 0.996 | 1.1 | 1.02 | 1.1 | 0.416 |  | 
6 | NCI-H647 | 0.529 | 0.401 | 0.524 | 1.1 | 1.02 | 1.02 | 1.23 | 0.704 | 0.561 | 0.582 | 0.476 | 1.21 | 0.941 | 1.18 | 1.4 | 0.445 | 0.814 | 0.325
7 | NCI-H727 | 1.27 | 0.995 | 1.19 | 0.439 | 0.508 | 0.498 | 0.445 | 0.395 | 0.677 | 0.568 | 0.643 | 0.516 | 0.271 | 0.259 | 0.306 |  | 0.538 | 
8 | NCI-H838 | 0.752 | 0.711 | 0.759 | 1.25 | 1.13 | 1.19 | 1.36 | 0.483 | 0.388 | 0.405 | 0.412 | 1.01 | 0.959 | 0.977 | 1.2 | 0.713 | 0.693 | 0.339
9 | NCI-H1355 | 0.672 | 0.581 | 0.633 | 0.988 | 0.819 | 0.902 | 1.01 | 0.477 | 0.34 | 0.416 | 0.44 | 0.76 | 0.802 | 0.749 | 0.866 | 0.641 |  | 
10 | NCI-H1395 | 0.699 | 0.662 | 0.667 | 1.48 | 1.05 | 1.02 | 1.37 | 0.692 | 0.594 | 0.583 | 0.589 | 0.965 | 1.28 | 0.976 | 1.47 | 0.719 |  | 0.377
11 | NCI-H1437 | 0.813 | 0.802 | 0.872 | 1.07 | 1.08 | 1.23 | 1.29 | 0.849 | 1.04 | 0.922 | 0.878 | 1.1 | 1.02 | 1.09 | 1.3 | 0.907 | 0.839 | 0.926
12 | NCI-H1651 | 0.533 | 0.419 | 0.544 | 0.933 | 0.96 | 0.982 | 1.27 | 0.666 | 0.748 | 0.714 | 0.736 | 0.876 | 1.09 | 0.967 | 1 | 0.573 | 0.567 | 0.724
13 | NCI-H1666 | 0.937 | 0.972 | 1.15 | 0.883 | 0.884 | 0.843 | 1.02 | 0.869 | 0.833 | 0.797 | 0.968 | 0.878 | 0.86 | 0.747 | 0.855 | 1.19 | 1.05 | 0.805
14 | NCI-H1734 | 0.85 | 0.708 | 0.759 | 0.814 | 0.695 | 0.685 | 0.743 | 0.655 | 0.471 | 0.496 | 0.502 | 0.977 | 0.769 | 0.794 | 0.763 | 0.627 |  | 
15 | NCI-H1755 | 0.726 | 0.771 | 0.728 | 1.08 | 0.971 | 1.05 | 1.04 | 0.672 | 0.591 | 0.661 | 0.701 | 1.02 | 0.967 | 1.01 | 0.725 | 0.558 | 0.849 | 0.668
16 | NCI-H1793 | 1.12 | 0.877 | 0.873 | 0.601 | 0.405 | 0.497 | 0.542 | 0.393 |  |  | 0.309 | 0.815 | 0.73 | 0.687 | 0.974 |  |  | 
17 | NCI-H1915 | 0.576 | 0.219 | 0.206 | 0.766 | 0.725 | 0.849 | 0.916 | 0.565 | 0.486 | 0.37 | 0.381 | 1.11 | 1.14 | 1.08 | 1.08 | 0.414 | 0.544 | 0.572
18 | NCI-H1944 | 0.529 | 0.659 | 0.483 | 1.04 | 1.03 | 1.15 | 0.973 | 0.433 | 0.39 | 0.505 | 0.439 | 1.07 | 1.06 | 1.31 | 0.903 | 0.508 | 0.445 | 0.356
